# Experimental data taken from patent publication US12194043B2, “Uridine phosphorylase inhibitors to treat or prevent pulmonary disease” (Tosk, Inc., priority 2020, dated 2025).
# “Also recorded” adds a separate entry of the source.
# Columns and labels:
# plasma UR = assay: Plasma UR concentration versus plasma Compound 1 concentration after continuous infusion via sc implanted osmotic pumps; format: in vivo; settings: BDF-1 male mice; for effect on plasma UR: constant-rate sc infusion 667, 833 or 3000 mg/kg/day, plasma at 72 h or 24 h
# Procedure: Solutions of Compound I were prepared at a concentration of 500 mg/mL in sterile PBS. Osmotic pumps (ALZET® micro-osmotic pump 2001D and 1003D, Alza Co) were loaded with 200 μL (2001D osmotic pump) and/or 100 μL (1003D osmotic pump) of TK-112690 solution.
# BDF-1 male mice (n=6) were treated with a constant-rate infusion of 667, 833 or 3000 mg/kg/day doses of Compound I delivered via subcutaneously implanted osmotic pumps. Animals were anesthetized with 100 mg/kg ketamine prior to pump implantation. Surgical scissors were used to make an approximately 1 cm incision on the dorsal surface near the shoulder blade of animals. A hemostat was used to carve out a subcutaneous tunnel toward the anterior end of animal. Osmotic pumps were placed inside the subcutaneous tunnel. Incision was sealed with wound clips.
# Blood collections were performed on animals anesthetized with ketamine (ip 100 mg/kg). Blood samples from animals treated with a constant-rate infusion of TK-112690 were collected at 72 hours for 667 mg/kg/day and 833 mg/kg/day and 24 hours for 3000 mg/kg/day after pump implantation. Whole blood (˜0.8 mL) was drawn through the retro-orbital sinus using a heparin coated micro-hematocrit tube and collected into an EDTA microtainer tube. Blood samples were transferred into fresh 1.5 mL microcentrifuge tubes and centrifuged for 10 minutes at 14,000×g using an Eppendorf Minispin Plus stored in a 4° C. refrigerator. Exactly 0.4 mL of plasma was transferred into fresh microcentrifuge tubes containing 2 μL of 10 mM 5-FU and vortexed at highest setting for approximately 5 seconds. The final 50 μM concentration of 5-FU served as an internal standard. Animals were sacrificed by cervical dislocation and properly disposed.
# Blood samples from animals treated with a constant-rate infusion of compound I were collected at 72 hours for 667 mg/kg/day and 833 mg/kg/day and 24 hours for 3000 mg/kg/day after pump implantation. […]
# A solid-phase extraction (SPE) of analytes (UR, Compound I and 5-FU) from plasma was conducted before HPLC analysis. […] Samples were transferred into fresh HPLC vials and analyzed. […]
# [1] = tested on: C57BL/6 male mice treated with bleomycin (pulmonary fibrosis); assay: Bleomycin/pulmonary fibrosis study, lung histology (Masson's trichrome, Ashcroft fibrosis grading); format: in vivo; settings: bleomycin OA day 0, 60 mg/kg IP BID days 7 through 20; for statistical significance of the decrease in fibrosis vs dosing vehicle: SPSS version 20
# Excerpt: FIG. 2. Figure is a chart providing histology scores for pulmonary tissue from mice treated with bleomycin (a well characterized lung toxin) and either dosing vehicle, UR, or TK-112690.
# Thirty-three C57BL/6 male mice, 10-14 weeks at study initiation, were acclimatized for least 3 days. The mouse has been selected as is referenced in the literature as a representative species of choice for this experimental animal model. During acclimation and throughout the entire study duration, animals were housed within a limited access rodent facility and kept in groups of a maximum of 4 mice per cage. Mice were housed in polypropylene cages with solid bottoms and wood shavings or corn Cobb as bedding material. Animals were provided ad libitum with a commercial rodent diet and had free access to drinking water that is supplied to each cage via polyethylene bottles. The automatically controlled environmental conditions was set to maintain temperature at 20-26° C. with a relative humidity (RH) of 30-70%, a 12:12 hour light: dark cycle, and 10-15 air changes/hour in the study room. Animals were given a unique animal identification tail mark as a means of identification. This number also appeared on a cage card, which is visible on the front of each cage. The cage card also contains the study and group numbers, route of administration, gender, study director and arrival date.
# Animals were randomly assigned to cages on arrival. Animals were assigned to treatment groups prior to treatment initiation. At study termination, surviving animals were weighed prior to euthanasia. Euthanasia was performed via anesthesia overdose and exsanguination.
# The table below lists the experimental group(s) comprising the study.
# Disease Induction. 75 uL of Bleomycin (section 4.5.) was administered on day 0 via oropharyngeal aspiration (O.A.). The mice were anesthetized via isoflurane/oxygen and suspended by their cranial incisors on a thin wire from an angled stand. The tongue was be gently held from the mouth using blunt forceps to visualize the base of the tongue and the pharynx. Bleomycin/saline suspension was pipetted onto posterior pharynx. Nostrils will be held gently closed. Respiration was monitored to ensure the suspension is fully aspirated.
# Treatment. Groups 3 and 4 were treated via intraperitoneal (IP) injection at a dosing volume of 10 ml/kg twice daily, 6-8 hours between doses, from days 7 through 20.
# Observations and Examinations. […]
# Histology. […] Disease severity and collagen levels were assessed by the Ashcroft fibrosis grading system.
# The resulting data were analyzed by SPSS, version 20.
# [2] = Elimination t1/2 of Compound 1 in mice; settings: mouse, in vivo
# [3] = cited: Deng et al., Science 2017; cited from earlier work
SMILES,effect on plasma UR (plasma UR),effect on plasma UR (plasma UR; listed as TK-112690),"slope of regression line, plasma UR concentration vs plasma Compound 1 concentration (plasma UR; continuous infusion of various amounts)",less fibrosis (histology score) than mice treated with the dosing vehicle [1] [%],statistical significance of the decrease in fibrosis vs dosing vehicle [1],half-life [2] [h],elimination t1/2 [3]
Cc1cn2c(nc1=O)O[C@H]1[C@H](O)[C@@H](CO)O[C@H]12 [Compound 1],elevate plasma UR in a linear fashion,elevate plasma UR in a linear fashion; also recorded: associated with higher levels of UR,0.010,30,statistically significant,1 to 2,–
"O=c1ccn([C@@H]2O[C@H](CO)[C@@H](O)[C@H]2O)c(=O)[nH]1 [UR, uridine]",–,–,–,7,not statistically significant,–,only a few minutes
